# Results as given in publication PMC8480759, “Inhibitors of histone deacetylase 6 based on a novel 3-hydroxy-isoxazole zinc binding group” (Journal of Enzyme Inhibition and Medicinal Chemistry, 2021).
# Legend:
# [1] = system: DU145 cells; experiment: Anti-proliferative assay (MTT cell viability); assay type: cell-based, human; settings: for effect on proliferation rate of DU145 cells: 50 µM, MTT, 24, 48, 72 h; for anti-proliferative activity at the lowest concentrations: DU145, late phases, lowest concentrations (tested 1, 5, 10, 50 µM)
# Protocol: The results corroborate the inhibitory activity of 17, 23, 25 and 27 at concentrations lower than 10 µM. […] HDACs contribution to CRPC is known[20] and the possibility to arrest CRPC proliferation by acting on HDAC targets is expanding in the scientific literature[21]^,[22]. After administration of the selected compounds for 24 h at 10 µM concentration, the effect on the acetylation levels of histone H3 and α-tubulin (respectively, HDAC1 and HDAC6 targets) was investigated. […] Lastly, in the same cell line, the anti-proliferative effect was measured in dose and time dependent manner (Figure S4).
# Figure S4. Cell viability assay (MTT) of the tested compounds in human prostate cancer cell lines (DU145). Cells were treated with 4 increasing concentrations (1, 5, 10, and 50 µM) of tested compounds, monitored at 24, 48, and 72 hours and tested with SAHA and Tubastatin A as reference compounds. Data are expressed as mean ± SEM. […]
# 1.5 Anti-proliferative assay
# Cell viability was determined on DU145 cell line using Thiazolyl Blue Tetrazolium Bromide [3-(4,5-dimethylthiazol-2-yl)-2,5-diphenyltetrazolium bromide] (MTT; Sigma-Aldrich) assay after treatment with new compounds at indicated concentrations. A total of 2 × 10^4 cells/well were plated in a 96-well plate and treated, in duplicates, with new compounds at different concentrations for 24, 48, and 72 hours. Absorbance was read at a wavelength of 570 nm with a TECAN M-200 reader (Tecan, Männedorf, Switzerland).
# [2] = molecular target: T1, HDAC6 (Homo sapiens, UniProt Q9UBN7); experiment: In vitro HDAC6 fluorogenic enzymatic assay; assay type: biochemical; set-up: purchased BPS Bioscience #50076 (Fluorogenic Assay Kit); settings: recombinant human HDAC6; dose-response 300 µM to 135 nM
# T1 sequence (Q9UBN7 1-1215): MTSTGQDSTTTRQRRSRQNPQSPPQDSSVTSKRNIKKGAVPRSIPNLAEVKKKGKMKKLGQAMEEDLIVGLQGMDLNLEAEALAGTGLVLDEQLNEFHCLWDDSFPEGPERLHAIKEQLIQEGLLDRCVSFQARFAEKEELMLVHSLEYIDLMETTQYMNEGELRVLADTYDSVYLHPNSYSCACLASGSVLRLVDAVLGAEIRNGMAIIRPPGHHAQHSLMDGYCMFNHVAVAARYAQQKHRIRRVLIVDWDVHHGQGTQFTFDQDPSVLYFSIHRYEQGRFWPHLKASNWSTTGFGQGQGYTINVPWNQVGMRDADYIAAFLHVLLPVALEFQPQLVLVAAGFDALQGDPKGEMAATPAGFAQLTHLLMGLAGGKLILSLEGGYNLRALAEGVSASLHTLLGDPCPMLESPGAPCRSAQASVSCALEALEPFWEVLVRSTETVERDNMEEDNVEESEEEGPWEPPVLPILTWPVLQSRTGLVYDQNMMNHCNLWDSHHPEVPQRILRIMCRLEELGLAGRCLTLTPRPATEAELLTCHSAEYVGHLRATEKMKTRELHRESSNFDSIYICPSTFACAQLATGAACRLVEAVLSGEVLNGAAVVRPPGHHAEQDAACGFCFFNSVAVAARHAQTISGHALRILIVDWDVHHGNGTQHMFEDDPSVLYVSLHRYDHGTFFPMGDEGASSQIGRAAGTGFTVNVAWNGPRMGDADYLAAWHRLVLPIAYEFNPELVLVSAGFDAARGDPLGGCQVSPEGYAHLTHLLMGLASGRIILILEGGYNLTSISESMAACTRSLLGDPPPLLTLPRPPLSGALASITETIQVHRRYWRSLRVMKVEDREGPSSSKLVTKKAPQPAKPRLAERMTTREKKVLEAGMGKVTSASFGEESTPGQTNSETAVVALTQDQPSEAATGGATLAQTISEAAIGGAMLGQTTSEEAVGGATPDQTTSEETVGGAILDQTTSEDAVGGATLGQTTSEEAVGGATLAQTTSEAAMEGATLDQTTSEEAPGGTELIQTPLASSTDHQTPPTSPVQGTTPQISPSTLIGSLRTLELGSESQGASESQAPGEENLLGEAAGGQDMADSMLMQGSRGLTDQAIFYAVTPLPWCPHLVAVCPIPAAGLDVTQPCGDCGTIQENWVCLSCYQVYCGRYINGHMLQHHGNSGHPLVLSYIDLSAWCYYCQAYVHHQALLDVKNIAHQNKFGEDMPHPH
IC50 [2] [nM],Compound,effect on proliferation rate of DU145 cells [1],anti-proliferative activity at the lowest concentrations [1]
1500,Oc1cc(-c2ccc3c(c2)OCO3)on1 [Compound 25],reduced the proliferation rate,exerted anti-proliferative activity
700,Oc1cc(-c2ccc(NCc3ccccc3)cc2)on1 [Compound 23],reduced the proliferation rate,exerted anti-proliferative activity
